Assay results reported in US20230113037A1 (Bayer Aktiengesellschaft, priority 2019, published 2023).

Legend:
AHR [1] = target: T1, AHR (Homo sapiens, UniProt P35869); assay: In vitro assay 1: antagonism in human cell line (AHR transactivation, firefly luciferase reporter, kynurenic acid prestimulated); type: cell-based; conditions: AHR Antagonism Human IC50 [M]
T1 construct: U87 MG glioblastoma cells (ATCC #HTB-14) endogenously expressing AHR; endogenous in cells; host or cells: U87 MG glioblastoma cells (ATCC #HTB-14)
T1 sequence (P35869 11-848): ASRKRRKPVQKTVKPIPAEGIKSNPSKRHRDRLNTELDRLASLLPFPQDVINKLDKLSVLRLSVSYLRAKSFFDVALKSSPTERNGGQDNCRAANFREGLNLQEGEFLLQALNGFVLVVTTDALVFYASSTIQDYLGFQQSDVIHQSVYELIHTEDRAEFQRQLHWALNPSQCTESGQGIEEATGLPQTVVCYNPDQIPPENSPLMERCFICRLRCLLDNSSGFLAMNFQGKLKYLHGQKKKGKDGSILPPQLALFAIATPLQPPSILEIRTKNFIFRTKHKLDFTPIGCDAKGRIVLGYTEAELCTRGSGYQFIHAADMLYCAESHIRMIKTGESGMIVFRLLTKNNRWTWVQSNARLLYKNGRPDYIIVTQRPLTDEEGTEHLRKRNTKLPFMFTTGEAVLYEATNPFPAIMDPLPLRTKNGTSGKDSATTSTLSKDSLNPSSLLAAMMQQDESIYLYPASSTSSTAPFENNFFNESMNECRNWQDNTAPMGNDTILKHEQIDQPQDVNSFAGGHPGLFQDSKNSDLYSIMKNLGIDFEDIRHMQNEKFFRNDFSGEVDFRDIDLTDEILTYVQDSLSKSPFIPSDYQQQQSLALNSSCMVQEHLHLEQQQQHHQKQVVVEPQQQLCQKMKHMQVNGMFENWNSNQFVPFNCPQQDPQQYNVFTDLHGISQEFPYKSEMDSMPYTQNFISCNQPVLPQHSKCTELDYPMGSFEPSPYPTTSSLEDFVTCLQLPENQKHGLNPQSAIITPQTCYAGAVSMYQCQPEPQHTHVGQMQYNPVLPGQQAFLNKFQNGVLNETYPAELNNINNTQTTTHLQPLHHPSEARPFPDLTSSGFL
How it was run: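 Antagonism measured as loss of kynurenic acid-driven firefly luciferase from DRE reporter in stably transfected U87 MG cells; constitutive Renilla signal monitors cytotoxicity. Positive/negative control normalization, staurosporine 5 μM with 150 μM kynurenic acid as inhibition control; replicates given as mean or median.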

AHR [2] = target: T2, AHR (Mus musculus, UniProt P30561); assay: In vitro assay 3: antagonism in mouse cell line (AHR transactivation, firefly luciferase reporter, kynurenic acid prestimulated); type: cell-based; conditions: mouse Hepa 1c1c7 cells, 200 μM kynurenic acid, 20 hours, read-out: AHR Antagonism Mouse IC50
T2 sequence (P30561 1-848 P471L/N533S/M589L): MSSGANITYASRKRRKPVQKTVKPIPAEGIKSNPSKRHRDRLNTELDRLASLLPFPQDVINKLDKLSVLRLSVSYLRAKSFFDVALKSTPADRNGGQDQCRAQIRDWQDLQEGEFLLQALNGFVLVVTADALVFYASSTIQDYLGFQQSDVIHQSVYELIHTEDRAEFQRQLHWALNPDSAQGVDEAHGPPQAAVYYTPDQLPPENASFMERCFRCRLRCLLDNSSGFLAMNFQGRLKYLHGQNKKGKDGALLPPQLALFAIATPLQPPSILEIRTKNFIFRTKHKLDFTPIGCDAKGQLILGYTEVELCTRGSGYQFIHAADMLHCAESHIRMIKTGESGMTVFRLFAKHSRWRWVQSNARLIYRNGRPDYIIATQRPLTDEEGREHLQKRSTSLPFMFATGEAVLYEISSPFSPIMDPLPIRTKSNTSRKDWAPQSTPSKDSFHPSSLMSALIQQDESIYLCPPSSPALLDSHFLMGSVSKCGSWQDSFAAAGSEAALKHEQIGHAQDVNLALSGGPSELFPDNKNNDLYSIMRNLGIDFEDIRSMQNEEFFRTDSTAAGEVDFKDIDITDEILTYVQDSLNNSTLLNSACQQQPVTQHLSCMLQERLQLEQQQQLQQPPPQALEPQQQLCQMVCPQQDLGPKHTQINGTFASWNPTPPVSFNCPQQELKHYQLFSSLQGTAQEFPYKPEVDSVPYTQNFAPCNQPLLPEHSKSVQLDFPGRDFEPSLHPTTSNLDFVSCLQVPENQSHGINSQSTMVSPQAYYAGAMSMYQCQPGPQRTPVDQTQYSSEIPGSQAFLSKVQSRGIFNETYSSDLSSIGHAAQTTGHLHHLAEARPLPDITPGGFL
How it was run: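 Kynurenic acid-prestimulated mouse reporter cells; stable AHR-inducible firefly luc construct with DRE sites in promoter. No-agonist wells = positive inhibition ctrl. Luminescence normalized to pos/neg ctrls; n>1 reported as mean or median.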

Row | IC50 (AHR [1]) [M] | IC50 (AHR [2]) [nM] | Compound
1 | 1.47e-09 | 2.31 | O=C1NCCCC[C@H]1Nc1nc2ccccc2c2nc(-c3ccc(Cl)cc3OC(F)(F)F)nn12 [Example 517, (3R)-3-({2-[4-chloro-2-(trifluoromethoxy)phenyl][1,2,4]triazolo[1,5-c]quinazolin-5-yl}amino)azepan-2-one]
2 | 4.5e-08 | 7.94 | O=C1NCCCC[C@@H]1Nc1nc2ccccc2c2nc(-c3ccc(Cl)cc3OC(F)(F)F)nn12 [Example 518, (3S)-3-({2-[4-chloro-2-(trifluoromethoxy)phenyl][1,2,4]triazolo[1,5-c]quinazolin-5-yl}amino)azepan-2-one]
3 | 3.65e-08 | 22.2 | O=C1NCCC[C@H]1Nc1nc2ccccc2c2nc(-c3ccc(Cl)cc3OC(F)(F)F)nn12 [Example 519, (3R)-3-({2-[4-chloro-2-(trifluoromethoxy)phenyl][1,2,4]triazolo[1,5-c]quinazolin-5-yl}amino)piperidin-2-one]
4 | 3.05e-08 | 9.59 | O=C1NCC[C@H]1Nc1nc2ccccc2c2nc(-c3ccc(Cl)cc3OC(F)(F)F)nn12 [Example 520, (3R)-3-({2-[4-chloro-2-(trifluoromethoxy)phenyl][1,2,4]triazolo[1,5-c]quinazolin-5-yl}amino)pyrrolidin-2-one]
5 | 2.04e-08 | 12.2 | CCCCNC(=O)[C@H](C)Nc1nc2ccccc2c2nc(-c3ccc(Cl)cc3OC(F)(F)F)nn12 [Example 521, N-butyl-N^2-{2-[4-chloro-2-(trifluoromethoxy)phenyl][1,2,4]triazolo[1,5-c]quinazolin-5-yl}alaninamide]
6 | > 2e-05 | 29.1 | CC[C@H](Nc1nc2ccccc2c2nc(-c3ccc(Cl)cc3OC(F)(F)F)nn12)C(N)=O [Example 522, (2S)-2-({2-[4-chloro-2-(trifluoromethoxy)phenyl][1,2,4]triazolo[1,5-c]quinazolin-5-yl}amino)butanamide]
7 | 4.99e-09 | 0.84 | CC[C@@H](Nc1nc2ccccc2c2nc(-c3ccc(Cl)cc3OC(F)(F)F)nn12)C(N)=O [Example 523, (2R)-2-({2-[4-chloro-2-(trifluoromethoxy)phenyl][1,2,4]triazolo[1,5-c]quinazolin-5-yl}amino)butanamide]
8 | 1.3e-07 | 17.7 | CC[C@H](Nc1nc2ccccc2c2nc(-c3ccc(Br)cc3OC(F)(F)F)nn12)C(N)=O [Example 524, (2S)-2-({2-[4-bromo-2-(trifluoromethoxy)phenyl][1,2,4]triazolo[1,5-c]quinazolin-5-yl}amino)butanamide]
9 | 1.47e-08 | 2.33 | O=C1NCCCC[C@@H]1Nc1nc2ccccc2c2nc(-c3ccc(Cl)cc3OC(F)F)nn12 [Example 526, (3S)-3-({2-[4-chloro-2-(difluoromethoxy)phenyl][1,2,4]triazolo[1,5-c]quinazolin-5-yl}amino)azepan-2-one]
10 | 9.3e-09 | 6.94 | O=C1NCC[C@H]1Nc1nc2ccccc2c2nc(-c3ccc(Cl)cc3OC(F)F)nn12 [Example 528, (3R)-3-({2-[4-chloro-2-(difluoromethoxy)phenyl][1,2,4]triazolo[1,5-c]quinazolin-5-yl}amino)pyrrolidin-2-one]
11 | 3.72e-09 | 3.94 | CCCCNC(=O)[C@H](C)Nc1nc2ccccc2c2nc(-c3ccc(Cl)cc3OC(F)F)nn12 [Example 533, N-butyl-N^2-{2-[4-chloro-2-(difluoromethoxy)phenyl][1,2,4]triazolo[1,5-c]quinazolin-5-yl}alaninamide]
12 | 2.03e-09 | 0.828 | O=C1NCCCC[C@H]1Nc1nc2ccccc2c2nc(-c3cnn(C(F)F)c3)nn12 [Example 534, (3R)-3-({2-[1-(difluoromethyl)-1H-pyrazol-4-yl][1,2,4]triazolo[1,5-c]quinazolin-5-yl}amino)azepan-2-one]
13 | 5.13e-09 | 2.57 | O=C1NCCCC[C@H]1Nc1nc2ccccc2c2nc(-c3cnn(C4CC4)c3)nn12 [Example 535, (3R)-3-{[2-(1-cyclopropyl-1H-pyrazol-4-yl)[1,2,4]triazolo[1,5-c]quinazolin-5-yl]amino}azepan-2-one]
